In patent US12202829B2, “Heterocyclic compound” (FIMECS, Inc., priority 2018, dated 2025):
Where a name gives a salt, the structure may show the parent alone.

Biological target: T1, human XIAP_BIR3 domain purified protein (Homo sapiens, UniProt P98170)
T1 construct: purchased R & D
Assay: XIAP binding inhibitory activity, HTRF method with b-Smac ligand
Conditions: for inhibition at 3 µM: test compound 3 μM, first symbol of the cell, read-out: XIAP binding inhibition rate when the concentration of the test compound is 3 μM; for IC50: second symbol of the cell, read-out: XIAP binding 50% inhibitory concentration (IC50 value)
Protocol: Human XIAP binding inhibitory activity were measured by the Homogeneous Time Resolved Fluorescence (HTRF) method with using commercially available human XIAP_BIR3 domain purified protein (R & D) and as a ligand a Smac N-terminal peptide (AVPIAQK (SEQ ID NO: 1)) (hereinafter referred to as “b-Smac”; Peptide Research Laboratories, Inc.) biotinylated at the C-terminus according to a conventional method.
The HTRF method will be described in detail below. A test compound diluted with a reaction buffer was added to a 384-well white shallow bottom plate (Greiner 784076) at 1 μL/well and flash centrifuged for 30 seconds. Subsequently, human XIAP_BIR3 domain purified protein was diluted with the reaction buffer (25 mM HEPES Buffer containing 100 mM NaCl, 0.1% BSA, and 0.1% triton X-100, pH 7.5) to obtain a 90 nM sample diluent, and the resultant sample diluent was added to the above-mentioned white superficial plate at 4.5 μL/well and flash centrifuged for 30 seconds. Subsequently, b-Smac diluted to 90 nM with the reaction buffer was added to the above-mentioned white superficial plat at 4.5 μL/well and flash centrifuged for 30 seconds. A mixed solution of Anti-6 HIS-Cryptate (Eu3+Cryptate-conjugated mouse monoclonal antibody anti-6 Histidine; cisbio) and Streptavidin-XL^ent! (Highgrade XL665-conjugated streptavidin; cisbio) both diluted 100-fold with HTRF detection buffer (cisbio) at a volume ratio of 1:1 was added to the above white superficial plate at 10 μL/well. After flash centrifuging the white shallow bottom plate for 30 seconds, the white shallow bottom plate was left at room temperature for 4 hours or more in the dark. The white superficial plate after being left was subjected to fluorescence intensity measurement (excitation wavelength: 320 nm, fluorescence wavelength: 665 nm and 615 nm) by EnVision (Perkin Elmer).
The binding inhibition rate (%) was calculated based on the HTRF ratio in the presence of the test compound to the HTRF ratio in the absence of the test compound (fluorescence intensity at 665 nm/fluorescence intensity at 615 nm).

T1 sequence (P98170 252-356 limits assumed): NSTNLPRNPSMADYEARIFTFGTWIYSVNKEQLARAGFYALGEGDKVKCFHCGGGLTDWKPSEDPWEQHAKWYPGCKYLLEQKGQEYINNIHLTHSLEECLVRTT

Compound	inhibition at 3 µM	IC50
CN[C@@H](C)C(=O)N[C@H](C(=O)N1CCN(C(=O)c2cc3cc(F)ccc3n2CC(=O)NCCOCCOCCNC(=O)C[C@@H]2N=C(c3ccc(Cl)cc3)c3c(sc(C)c3C)-n3c(C)nnc32)CC1)C1CCCCC1 [Example 76, (S)-N-((S)-2-(4-(1-(14-((S)-4-(4-chlorophenyl)-2,3,9-trimethyl-6H-thieno[3,2-f][1,2,4]triazolo[4,3-a][1,4]diazepin-6-yl)-2,13-dioxo-6,9-dioxa-3,12-diazatetradecyl)-5-fluoro-1H-indole-2-carbonyl)piperazin-1-yl)-1-cyclohexyl-2-oxoethyl)-2-(methylamino)propanamide]	> 25%	–
CN[C@@H](C)C(=O)N[C@H](C(=O)N1CCN(C(=O)c2c(C(=O)N3CC(OC)C3)c3ccc(OC)cc3n2C)CC1)C1CCCCC1 [Example 31, (S)—N—((S)-1-Cyclohexyl-2-(4-(6-methoxy-3-(3-methoxyazetidine-1-carbonyl)-1-methyl-1H-indole-2-carbonyl)piperazin-1-yl)-2-oxoethyl)-2-(methylamino)propanamide Hydrochloride]	50 to 75%	–
CN[C@@H](C)C(=O)N[C@H](C(=O)N1CCN(C(=O)c2c(C(=O)N(C)CC(=O)OC)c3ccc(OC)cc3n2C)CC1)C1CCCCC1 [Example 28, Methyl N-(2-(4-((S)-2-cyclohexyl-2-((S)-2-(methylamino)propanamido)acetyl)piperazine-1-carbonyl)-6-methoxy-1-methyl-1H-indole-3-carbonyl)-N-methylglycinate Hydrochloride]	50 to 75%	–
CN[C@@H](C)C(=O)N[C@H](C(=O)N1CCN(C(=O)c2cc3ccc(OC)cc3n2C)C[C@@H]1C)C1CCCCC1 [Example 32, (S)—N—((S)-1-Cyclohexyl-2-((S)-4-(6-methoxy-1-methyl-1H-indole-2-carbonyl)-2-methylpiperazin-1-yl)-2-oxoethyl)-2-(methylamino)propanamide Hydrochloride]	50 to 75%	–
CN[C@@H](C)C(=O)N[C@H](C(=O)N1CCN(C(=O)c2cc3ccc(OC)cc3n2C)C[C@H]1C)C1CCCCC1 [Example 24, (S)—N—((S)-1-cyclohexyl-2-((R)-4-(6-methoxy-1-methyl-1H-indole-2-carbonyl)-2-methylpiperazin-1-yl)-2-oxoethyl)-2-(methylamino)propanamide Hydrochloride]	> 75%	–
CN[C@@H](C)C(=O)N[C@H](C(=O)N1CCN(C(=O)c2c(C(=O)NCCOCCOCCNC(=O)C[C@@H]3N=C(c4ccc(Cl)cc4)c4c(sc(C)c4C)-n4c(C)nnc43)c3ccc(OC)cc3n2C)CC1)C1CCCCC1 [Example 72, N-(2-(2-(2-(2-((S)-4-(4-Chlorophenyl)-2,3,9-trimethyl-6H-thieno[3,2-f][1,2,4]triazolo[4,3-a][1,4]diazepin-6-yl)acetamido)ethoxy)ethoxy)ethyl)-2-(4-((S)-2-cyclohexyl-2-((S)-2-(methylamino)propanamido)acetyl)piperazine-1-carbonyl)-6-methoxy-1-methyl-1H-indole-3-carboxamide Hydrochloride]	–	< 0.3 µM
CN[C@@H](C)C(=O)N[C@H](C(=O)N1CCN(C(=O)c2c(C(=O)NCCOCCOCCOc3ccc(NC(=O)C[C@@H]4N=C(c5ccc(Cl)cc5)c5c(sc(C)c5C)-n5c(C)nnc54)cc3)c3cc(F)c(F)cc3n2C)CC1)C1CCCCC1 [Example 78, N-(2-(2-(2-(4-(2-((S)-4-(4-Chlorophenyl)-2,3,9-trimethyl-6H-thieno[3,2-f][1,2,4]triazolo[4,3-a][1,4]diazepin-6-yl)acetamido)phenoxy)ethoxy)ethoxy)ethyl)-2-(4-((S)-2-cyclohexyl-2-((S)-2-(methylamino)propanamido)acetyl)piperazine-1-carbonyl)-5,6-difluoro-1-methyl-1H-indole-3-carboxamide hydrochloride]	–	0.3 to 3 µM
CN[C@@H](C)C(=O)N[C@H](C(=O)N1CCN(C(=O)c2cc(C3CC3)nn2C)CC1)C1CCCCC1 [Example 9, (S)-N-((S)-1-cyclohexyl-2-(4-(3-cyclopropyl-1-methyl-1H-pyrazole-5-carbonyl)piperazin-1-yl)-2-oxoethyl)-2-(methylamino)propanamide]	> 25%	–
C[C@@H]1CN(CC(=O)N2CCN(C(=O)c3cc4cc(F)c(F)cc4n3C)C[C@H]2C)[C@@H](COCCOCCOCCOCCO)CN1 [Example 65, 1-((R)-4-(5,6-Difluoro-1-methyl-1H-indole-2-carbonyl)-2-methylpiperazin-1-yl)-2-((2R,5R)-2-(13-hydroxy-2,5,8,11-tetraoxatridecyl)-5-methylpiperazin-1-yl)ethan-1-one]	–	3 to 30 µM

The remaining lines, values ahead:

inhibition at 3 µM	IC50	Compound
> 25%	–	CN[C@@H](C)C(=O)N[C@H](C(=O)N1CCN(C(=O)c2cc(C(F)(F)F)nn2C)CC1)C1CCCCC1 [Example 11, (S)-N-((S)-1-cyclohexyl-2-(4-(1-methyl-3-(trifluoromethyl)-1H-pyrazole-5-carbonyl)piperazin-1-yl)-2-oxoethyl)-2-(methylamino)propanamide]
> 75%	–	CN[C@@H](C)C(=O)N[C@H](C(=O)N1CCN(C(=O)c2cc3cc(F)ccc3n2C)CC1)C1CCCCC1 [Example 15, (S)-N-((S)-1-cyclohexyl-2-(4-(5-fluoro-1-methyl-1H-indole-2-carbonyl)piperazin-1-yl)-2-oxoethyl)-2-(methylamino)propanamide]
25 to 50%	–	CN[C@@H](C)C(=O)N[C@H](C(=O)N1CCN(C(=O)c2ccn3nccc3c2F)CC1)C1CCCCC1 [Example 5, (S)-N-((S)-1-cyclohexyl-2-(4-(4-fluoropyrazolo[1,5-a]pyridine-5-carbonyl)piperazin-1-yl)-2-oxoethyl)-2-(methylamino)propanamide]
–	3 to 30 µM	CN[C@@H](C)C(=O)N[C@H](C(=O)N1CCN(C(=O)c2cc3cc(F)c(F)cc3n2CCOCCOCc2ccccc2)CC1)C1CCCCC1 [Example 44, (S)—N—((S)-2-(4-(1-(2-(2-(Benzyloxy)ethoxy)ethyl)-5,6-difluoro-1H-indole-2-carbonyl)piperazin-1-yl)-1-cyclohexyl-2-oxoethyl)-2-(methylamino)propanamide]
> 25%	–	CN[C@@H](C)C(=O)N[C@H](C(=O)N1CCN(C(=O)c2ccc3nc(C)nn3c2)CC1)C1CCCCC1 [Example 19, (S)-N-((S)-1-cyclohexyl-2-(4-(2-methyl-[1,2,4]triazolo[1,5-a]pyridine-6-carbonyl)piperazin-1-yl)-2-oxoethyl)-2-(methylamino)propanamide]
50 to 75%	–	CN[C@@H](C)C(=O)N[C@H](C(=O)N1CCN(C(=O)c2c(C(=O)N(C)CCOC)c3ccc(OC)cc3n2C)CC1)C1CCCCC1 [Example 26, 2-(4-((S)-2-Cyclohexyl-2-((S)-2-(methylamino)propanamido)acetyl)piperazine-1-carbonyl)-6-methoxy-N-(2-methoxyethyl)-N,1-dimethyl-1H-indole-3-carboxamide Hydrochloride]
–	< 0.3 µM	CN[C@@H](C)C(=O)N[C@H](C(=O)N1CCN(C(=O)c2ccc3c(c2)cc(C)n3CCOCCOCCO)CC1)C1CCCCC1 [Example 69, (S)—N—((S)-1-Cyclohexyl-2-(4-(1-(2-(2-(2-hydroxyethoxy)ethoxy)ethyl)-2-methyl-1H-indole-5-carbonyl)piperazine-1-yl)-2-oxoethyl)-2-(methylamino)propanamide]
–	0.3 to 3 µM	CN[C@@H](C)C(=O)N[C@H](C(=O)N1CCN(C(=O)c2cc3c(OCCOCCOCCOCCO)c(F)c(F)cc3n2C)CC1)C1CCCCC1 [Example 68, (S)—N—((S)-1-Cyclohexyl-2-(4-(5,6-difluoro-4-(2-(2-(2-(2-hydroxyethoxy)ethoxy)ethoxy)ethoxy)-1-methyl-1H-indole-2-carbonyl)piperazin-1-yl)-2-oxoethyl)-2-(methylamino)propanamide]
> 25%	–	CN[C@@H](C)C(=O)N[C@H](C(=O)N1CCN(C(=O)c2ccc3cnn(C)c3c2)CC1)C1CCCCC1 [Example 17, (S)-N-((S)-1-cyclohexyl-2-(4-(1-methyl-1H-indazole-6-carbonyl)piperazin-1-yl)-2-oxoethyl)-2-(methylamino)propanamide]
> 75%	–	CN[C@@H](C)C(=O)N[C@H](C(=O)N1CCN(C(=O)c2cc3cc(F)c(F)cc3n2C)CC1)C1CCCCC1 [Example 41, (S)—N—((S)-1-Cyclohexyl-2-(4-(5,6-difluoro-1-methyl-1H-indole-2-carbonyl)piperazin-1-yl)-2-oxoethyl)-2-(methylamino)propanamide]
> 25%	–	CN[C@@H](C)C(=O)N[C@H](C(=O)N1CCN(C(=O)c2cc(OCCOC)nn2C)CC1)C1CCCCC1 [Example 8, (S)-N-((S)-1-cyclohexyl-2-(4-(3-(2-methoxyethoxy)-1-methyl-1H-pyrazole-5-carbonyl)piperazin-1-yl)-2-oxoethyl)-2-(methylamino)propanamide]
